Literature values in patent publication US6680321B1, “Compounds with analgesic effect” (AstraZeneca Canada, Inc., priority 1995, dated 2004).

What was measured:
μ receptor = μ receptor (Homo sapiens, UniProt P35372)
[1] = in vivo
δ receptor = δ receptor (Homo sapiens, UniProt P41143)
Sequence of δ receptor (P41143 whole entry): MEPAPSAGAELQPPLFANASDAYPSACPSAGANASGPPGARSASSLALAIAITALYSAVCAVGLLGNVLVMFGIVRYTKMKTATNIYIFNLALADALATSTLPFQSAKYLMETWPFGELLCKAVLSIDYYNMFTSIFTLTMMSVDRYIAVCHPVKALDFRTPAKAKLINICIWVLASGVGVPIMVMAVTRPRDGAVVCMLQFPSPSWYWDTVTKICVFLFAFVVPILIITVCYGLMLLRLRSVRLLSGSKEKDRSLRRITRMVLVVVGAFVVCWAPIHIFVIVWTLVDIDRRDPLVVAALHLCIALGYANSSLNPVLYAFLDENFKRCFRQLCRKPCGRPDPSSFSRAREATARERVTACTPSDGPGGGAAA

Sequence of μ receptor (P35372 whole entry): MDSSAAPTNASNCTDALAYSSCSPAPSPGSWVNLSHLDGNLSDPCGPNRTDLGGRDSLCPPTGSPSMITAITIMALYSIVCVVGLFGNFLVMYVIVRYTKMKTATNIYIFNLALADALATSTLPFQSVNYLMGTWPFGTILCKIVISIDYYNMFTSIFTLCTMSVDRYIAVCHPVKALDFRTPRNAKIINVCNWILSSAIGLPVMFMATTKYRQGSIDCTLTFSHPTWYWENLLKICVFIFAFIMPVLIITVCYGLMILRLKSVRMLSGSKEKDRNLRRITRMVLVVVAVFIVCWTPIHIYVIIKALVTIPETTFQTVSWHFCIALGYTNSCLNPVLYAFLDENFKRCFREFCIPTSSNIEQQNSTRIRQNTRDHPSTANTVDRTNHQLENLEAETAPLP

SMILES | affinity for the μ receptor (μ receptor) | analgesic activity [1] | selectivity for the δ receptor vs μ′ receptor binding (δ receptor)
C=CCN1C[C@H](C)N([C@H](c2ccc(C(=O)N(CC)CC)cc2)c2cccc(O)c2)C[C@H]1C [BW 373U86] | significant affinity | with analgesic activity | 
Oc1ccc2c3c1O[C@H]1c4[nH]c5ccccc5c4C[C@@]4(O)[C@@H](C2)N(CC2CC2)CC[C@]314 [naltrindole] |  | no analgesic activity | < 10 fold
